Test results: patent US8609661B2, “Pyrimido-pyrrolo-quinoxalinedione inhibitors of cystic fibrosis transmembrane conductance regulator protein and uses therefor” (The Regents of the University of California, priority 2009, dated 2013)

Columns and labels:
CFTR = CFTR (Homo sapiens, UniProt P13569); settings: literature; depending on cell type and membrane potential; read-out: IC50 for CFTR chloride conductance block; cited from earlier work
human wildtype CFTR = biological target: T1, human wildtype CFTR (Homo sapiens, UniProt P13569); test: Fluorescence platereader assay of CFTR-mediated iodide influx (YFP quenching) in FRT cells; assay type: cell-based; settings: FRT, Table 2, screening; for inhibition at 5 µM: read-out: % Inhibition at 5 μM; for inhibition at 25 µM: read-out: % Inhibition at 25 μM
T1 construct: expressed in transfected cells; host or cells: Fischer rat thyroid (FRT) cells
Outline: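 Fischer rat thyroid cells co-expressing human wildtype CFTR and the YFP-H148Q/1152L halide sensor were seeded at 20,000 cells per well in 96-well black-walled plates and assayed 48 h later at confluence. After PBS washes and a 15 min incubation, CFTR was maximally activated with an agonist mixture. Fluorescence was recorded for 2 s before and 10 s after adding 160 μL iodide-substituted PBS, and iodide influx rates came from non-linear regression.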

T1 sequence (P13569 whole entry): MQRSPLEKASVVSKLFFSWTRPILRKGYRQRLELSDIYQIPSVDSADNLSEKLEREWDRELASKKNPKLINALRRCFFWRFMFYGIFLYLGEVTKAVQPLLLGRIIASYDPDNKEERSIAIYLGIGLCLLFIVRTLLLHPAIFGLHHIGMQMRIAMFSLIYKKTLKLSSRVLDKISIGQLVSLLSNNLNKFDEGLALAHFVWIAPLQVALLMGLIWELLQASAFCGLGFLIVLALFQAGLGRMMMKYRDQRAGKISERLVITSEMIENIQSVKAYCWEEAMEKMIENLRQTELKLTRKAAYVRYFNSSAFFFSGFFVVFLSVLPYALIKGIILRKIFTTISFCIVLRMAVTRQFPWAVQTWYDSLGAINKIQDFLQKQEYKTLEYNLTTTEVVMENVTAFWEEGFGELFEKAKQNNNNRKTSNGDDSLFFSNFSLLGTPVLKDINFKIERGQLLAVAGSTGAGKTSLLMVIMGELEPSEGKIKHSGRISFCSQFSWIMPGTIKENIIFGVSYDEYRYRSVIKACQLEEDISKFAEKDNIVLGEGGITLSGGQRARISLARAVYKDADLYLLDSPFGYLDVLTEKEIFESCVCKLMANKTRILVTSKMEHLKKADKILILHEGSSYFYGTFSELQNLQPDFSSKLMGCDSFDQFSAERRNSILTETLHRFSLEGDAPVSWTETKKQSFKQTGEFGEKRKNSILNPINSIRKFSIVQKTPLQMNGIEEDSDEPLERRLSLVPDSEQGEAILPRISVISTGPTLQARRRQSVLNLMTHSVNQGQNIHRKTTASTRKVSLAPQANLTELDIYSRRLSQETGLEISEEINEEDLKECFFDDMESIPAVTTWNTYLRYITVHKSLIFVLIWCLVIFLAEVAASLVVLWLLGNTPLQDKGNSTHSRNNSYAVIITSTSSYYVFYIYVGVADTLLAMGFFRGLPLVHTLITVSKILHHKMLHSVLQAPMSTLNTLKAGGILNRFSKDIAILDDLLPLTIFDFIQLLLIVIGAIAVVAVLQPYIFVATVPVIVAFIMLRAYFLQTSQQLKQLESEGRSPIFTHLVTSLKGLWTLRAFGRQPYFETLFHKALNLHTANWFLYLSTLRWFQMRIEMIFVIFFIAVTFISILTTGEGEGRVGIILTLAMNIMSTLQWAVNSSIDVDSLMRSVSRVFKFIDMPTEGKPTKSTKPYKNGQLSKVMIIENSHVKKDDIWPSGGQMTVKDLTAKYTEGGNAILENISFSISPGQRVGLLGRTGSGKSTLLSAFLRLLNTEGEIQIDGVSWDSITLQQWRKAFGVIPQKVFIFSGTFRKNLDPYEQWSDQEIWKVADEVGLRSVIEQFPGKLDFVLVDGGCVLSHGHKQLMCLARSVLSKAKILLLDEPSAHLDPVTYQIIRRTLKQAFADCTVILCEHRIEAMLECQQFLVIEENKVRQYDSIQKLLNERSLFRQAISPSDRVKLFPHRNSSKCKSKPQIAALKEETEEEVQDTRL
CFTR, sequence (P13569 whole entry, species assumed): as the sequence (P13569 whole entry) above

SMILES	IC50 (CFTR) [µM]	inhibition at 5 µM (human wildtype CFTR) [%]	inhibition at 25 µM (human wildtype CFTR) [%]
O=C(CNc1ccc2ccccc2c1)N/N=C/c1cc(Br)c(O)c(Br)c1O [GlyH-101]	~5	–	–
Cc1cc2c(cc1C)-n1c(-c3ccccc3)c3c(=O)n(C)c(=O)n(C)c3c1C(c1ccc(O)cc1O)N2 (centres unmarked) [PPQ-235, 2,3,7,9-Tetramethyl-11-phenyl-6-(2,4-dihydroxyphenyl)-5,6-dihydro-pyrimido[4′,5′-3,4]pyrrolo[1,2-a]quinoxaline-8,10-(7H,9H)-dione]	–	12	80
Cc1cc2c(cc1C)-n1c(-c3ccccc3)c3c(=O)n(C)c(=O)n(C)c3c1C(c1cccc(O)c1O)N2 (centres unmarked) [PPQ-236, 2,3,7,9-Tetramethyl-11-phenyl-6-(2,3-dihydroxyphenyl)-5,6-dihydro-pyrimido[4′,5′-3,4]pyrrolo[1,2-a]quinoxaline-8,10-(7H,9H)-dione]	–	14	80
Cc1ccc(C2Nc3ccccc3-n3c(-c4ccccc4F)c4c(=O)n(C)c(=O)n(C)c4c32)cc1 (centres unmarked) [PPQ-237, 7,9-Dimethyl-11-(2-fluorophenyl)-6-(4-methylphenyl)-5,6-dihydro-pyrimido[4′,5′-3,4]pyrrolo[1,2-a]quinoxaline-8,10-(7H,9H)-dione]	–	20	58
Cc1cccc(-c2c3c(=O)n(C)c(=O)n(C)c3c3n2-c2ccccc2NC3c2ccc(F)cc2)c1 (centres unmarked) [PPQ-238, 7,9-Dimethyl-11-(3-methylphenyl)-6-(4-fluorophenyl)-5,6-dihydro-pyrimido[4′,5′-3,4]pyrrolo[1,2-a]quinoxaline-8,10-(7H,9H)-dione]	–	22	57
Cn1c(=O)c2c(-c3ccccc3)n3c(c2n(C)c1=O)C(c1cccc(F)c1)Nc1ccccc1-3 (centres unmarked) [PPQ-239, 7,9-Dimethyl-11-phenyl-6-(3-fluorophenyl)-5,6-dihydro-pyrimido[4′,5′-3,4]pyrrolo[1,2-a]quinoxaline-8,10-(7H,9H)-dione]	–	45	76
Cn1c(=O)c2c(-c3ccccc3)n3c(c2n(C)c1=O)C(c1cccc(O)c1)Nc1ccccc1-3 (centres unmarked) [PPQ-240, 7,9-Dimethyl-11-phenyl-6-(3-hydroxyphenyl)-5,6-dihydro-pyrimido[4′,5′-3,4]pyrrolo[1,2-a]quinoxaline-8,10-(7H,9H)-dione]	–	30	74
COc1cc(C2Nc3ccccc3-n3c(-c4cccc(C)c4)c4c(=O)n(C)c(=O)n(C)c4c32)ccc1O (centres unmarked) [PPQ-241, 7,9-Dimethyl-11-(3-methylphenyl)-6-(3-methoxy-4-hydroxyphenyl)-5,6-dihydro-pyrimido[4′,5′-3,4]pyrrolo[1,2-a]quinoxaline-8,10-(7H,9H)-dione]	–	16	74
Cc1ccccc1-c1c2c(=O)n(C)c(=O)n(C)c2c2n1-c1ccccc1NC2c1cccc(O)c1 (centres unmarked) [PPQ-242, 7,9-Dimethyl-11-(2-methylphenyl)-6-(3-hydroxyphenyl)-5,6-dihydro-pyrimido[4′,5′-3,4]pyrrolo[1,2-a]quinoxaline-8,10-(7H,9H)-dione]	–	15	74
Cc1cccc(-c2c3c(=O)n(C)c(=O)n(C)c3c3n2-c2ccccc2NC3c2ccc(O)c(O)c2)c1 (centres unmarked) [PPQ-243, 7,9-Dimethyl-11-(3-methylphenyl)-6-(3,4-dihydroxyphenyl)-5,6-dihydro-pyrimido[4′,5′-3,4]pyrrolo[1,2-a]quinoxaline-8,10-(7H,9H)-dione]	–	12	72
Cn1c(=O)c2c(-c3ccccc3F)n3c(c2n(C)c1=O)C(c1ccc(F)cc1F)Nc1ccccc1-3 (centres unmarked) [PPQ-244, 7,9-Dimethyl-11-(2-fluorophenyl)-6-(2,4-difluorophenyl)-5,6-dihydro-pyrimido[4′,5′-3,4]pyrrolo[1,2-a]quinoxaline-8,10-(7H,9H)-dione]	–	32	56
COc1cc(O)ccc1C1Nc2ccccc2-n2c(-c3cccc(C)c3)c3c(=O)n(C)c(=O)n(C)c3c21 (centres unmarked) [PPQ-245, 7,9-Dimethyl-11-(3-methylphenyl)-6-(2-methoxy-4-hydroxyphenyl)-5,6-dihydro-pyrimido[4′,5′-3,4]pyrrolo[1,2-a]quinoxaline-8,10-(7H,9H)-dione]	–	20	55
COc1ccc(O)c(C2Nc3ccccc3-n3c(-c4cccc(C)c4)c4c(=O)n(C)c(=O)n(C)c4c32)c1 (centres unmarked) [PPQ-246, 7,9-Dimethyl-11-(3-methylphenyl)-6-(2-hydroxy-5-methoxylphenyl)-5,6-dihydro-pyrimido[4′,5′-3,4]pyrrolo[1,2-a]quinoxaline-8,10-(7H,9H)-dione]	–	< 10	50
Cc1cc2c(cc1C)-n1c(-c3ccccc3)c3c(=O)n(C)c(=O)n(C)c3c1C(c1cc(O)ccc1O)N2 (centres unmarked) [PPQ-247, 2,3,7,9-Tetramethyl-11-phenyl-6-(2,5-dihydroxyphenyl)-5,6-dihydro-pyrimido[4′,5′-3,4]pyrrolo[1,2-a]quinoxaline-8,10-(7H,9H)-dione]	–	13	58
COc1cc(C2Nc3ccccc3-n3c(-c4ccccc4)c4c(=O)n(C)c(=O)n(C)c4c32)ccc1O (centres unmarked) [PPQ-248, 7,9-Dimethyl-11-phenyl-6-(3-methoxy-4-hydroxyphenyl)-5,6-dihydro-pyrimido[4′,5′-3,4]pyrrolo[1,2-a]quinoxaline-8,10-(7H,9H)-dione]	–	5	64
Cn1c(=O)c2c(-c3ccccc3)n3c(c2n(C)c1=O)C(c1ccc(F)cc1)Nc1ccccc1-3 (centres unmarked) [PPQ-249, 7,9-Dimethyl-11-phenyl-6-(4-fluorophenyl)-5,6-dihydro-pyrimido[4′,5′-3,4]pyrrolo[1,2-a]quinoxaline-8,10-(7H,9H)-dione]	–	21	64
Cc1cccc(-c2c3c(=O)n(C)c(=O)n(C)c3c3n2-c2ccccc2NC3c2ccccc2)c1 (centres unmarked) [PPQ-250, 7,9-Dimethyl-11-(3-methylphenyl)-6-phenyl-5,6-dihydro-pyrimido[4′,5′-3,4]pyrrolo[1,2-a]quinoxaline-8,10-(7H,9H)-dione]	–	49	64
COc1cc(C2Nc3ccccc3-n3c(-c4ccccc4F)c4c(=O)n(C)c(=O)n(C)c4c32)ccc1O (centres unmarked) [PPQ-251, 7,9-Dimethyl-11-(2-fluorophenyl)-6-(3-methoxy-4-hydroxyphenyl)-5,6-dihydro-pyrimido[4′,5′-3,4]pyrrolo[1,2-a]quinoxaline-8,10-(7H,9H )-dione]	–	13	62
COc1ccc(-c2c3c(=O)n(C)c(=O)n(C)c3c3n2-c2ccccc2NC3c2cccc(F)c2F)cc1 (centres unmarked) [PPQ-252, 7,9-Dimethyl-11-(4-methoxyphenyl)-6-(2,3-difluorophenyl)-5,6-dihydro-pyrimido[4′,5′-3,4]pyrrolo[1,2-a]quinoxaline-8,10-(7H,9H)-dione]	–	< 10	78
Cn1c(=O)c2c(-c3ccccc3)n3c(c2n(C)c1=O)C(c1ccc2c(c1)OCO2)Nc1ccccc1-3 (centres unmarked) [PPQ-301, 7,9-Dimethyl-11-phenyl-6-(1,3-benzodioxol-5-yl)-5,6-dihydro-pyrimido[4′,5′-3,4]pyrrolo[1,2-a]quinoxaline-8,10-(7H,9H)-dione]	–	28	58
Cc1cccc(-c2c3c(=O)n(C)c(=O)n(C)c3c3n2-c2ccccc2NC3c2ccc3c(c2)OCO3)c1 (centres unmarked) [PPQ-302, 7,9-Dimethyl-11-(3-methylphenyl)-6-(1,3-benzodioxol-5-yl)-5,6-dihydro-pyrimido[4′,5′-3,4]pyrrolo[1,2-a]quinoxaline-8,10-(7H,9H)-dione]	–	26	63
